Assay results published in article PMC11642016 (International Journal of Molecular Sciences, 2024).
Where “and” joins values, the source holds several entries; their conditions need not be identical. Equal values may be shown once.

Tested on: HEK293T CLPP^−/− cells
Assay: CellTiter-Glo cell viability assay, HEK293T CLPP−/− (ClpP dependence);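 note: CellTiter-Glo luminescent signal read on a microplate reader once HEK293T CLPP−/− cells had been exposed to compounds for 72 h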
Conditions: 72 h; for HEK293T CLPP-/- Cell viability (% of controll): individual replicates
Protocol: Primary fibroblast cultures were prepared from human skin biopsies and maintained in DMEM supplemented with 10% FBS, 1% penicillin-streptomycin, and 1% MEM Non-Essential Amino Acids Solution (Thermo Fisher Scientific). […] All cell lines were cultured in a humidified atmosphere at 37 °C and 5% CO2, passaged twice a week, and the experiments were performed on cells between passage 5 and 15. The cell lines were routinely screened for the absence of mycoplasma infection (DAPI staining).
The effects of the synthesized compounds on cell viability were measured using the CellTiter-Glo® luminescent cell viability assay (Promega, Madison, WI, USA), according to the manufacturer’s instructions. Briefly, cells were seeded onto a flat-bottomed, white 96-well plate (BRANDplates, cat. no.: 781965)), with the following densities: PANC-1: 750 cells/well, Fadu: 2000 cells/well, primary fibroblasts: 2000 cells/well, HEK293T WT: 1000 cells/well, HEK293T CLPP^−/−: 2500 cells/well. After seeding, cells were incubated for a further 48 h before treatment. Cells were treated with the compounds for 72 h. Three concentrations (25.0 µM; 8.3 µM; 2.8 µM) were applied during the initial cell viability screening, while for the determination of dose–response curves, 1.5-fold serially diluted compound concentrations were applied (range: 26 µM–0.7 µM). After treatment, the luminescence signal was recorded using a microplate reader (BioTek Synergy 2 Multi-Mode Reader, BioTek, Winooski, VT, USA).
Data analysis was performed using GraphPad Prism 9.5.0 software (GraphPad Software, San Diego, CA, USA). […] The dose–response curves were generated by four-parameter nonlinear regression, and the IC50 values were determined as the means ± SEM of the best-fit values of 3 independent measurements. The R^2 values were consistently above 0.93, indicating a strong fit of the model to the experimental data (Supplementary S.89). […] Dunnett’s post hoc test was applied to adjust for multiple comparisons, minimizing the likelihood of false positive results. Assumptions for ANOVA, including normality (assessed via QQ plots) and homogeneity of variance (tested using the Brown–Forsythe test), were verified. The following significance levels were applied: * p < 0.05, ** p < 0.01, *** p < 0.001, **** p < 0.0001. […] The tumor selectivity of the compounds was quantitatively characterized by the selectivity index (SI). This parameter was calculated as the ratio of the average best-fit IC50 value for primary fibroblasts and the best-fit IC50 value for the corresponding tumor cells (PANC-1 or Fadu).

CNCC#Cc1cccc(CN2C(=O)C3=C(CCN(Cc4ccc(-n5cc(-c6ccccc6)nn5)cc4)C3)N3CCN=C23)c1 [38b]
HEK293T CLPP-/- Cell viability (% of controll) (0.4 μM, dose–response, listed as CZT457, 0.4 µM): 116 % of controll and 114 % of controll and 119 % of controll | HEK293T CLPP-/- Cell viability (% of controll) (0.6 μM, dose–response, listed as CZT457, 0.6 µM): 112 % of controll (2×) and 110 % of controll | HEK293T CLPP-/- Cell viability (% of controll) (1.0 μM, dose–response, listed as CZT457, 1 µM): 112 % of controll and 111 % of controll and 115 % of controll | HEK293T CLPP-/- Cell viability (% of controll) (1.6 μM, dose–response, listed as CZT457, 1.6 µM): 107 % of controll and 101 % of controll and 103 % of controll | HEK293T CLPP-/- Cell viability (% of controll) (2.5 μM, dose–response, listed as CZT457, 2.5 µM): 25 % of controll and 33 % of controll and 32 % of controll and 13 % of controll | HEK293T CLPP-/- Cell viability (% of controll) (4.0 μM, dose–response, listed as CZT457, 4 µM): 1 % of controll and 0 % of controll | HEK293T CLPP-/- Cell viability (% of controll) (6.4 μM, dose–response): 0 % of controll | HEK293T CLPP-/- Cell viability (% of controll) (16.25 μM, dose–response): 0 % of controll | HEK293T CLPP-/- Cell viability (% of controll) (26 μM, dose–response): 0 % of controll | IC50 (Homo sapiens, HEK-293T, read-out: IC50 (µM) HEK293T CLPP^−/−): 2.1 ± 0.03 µM | effect on the viability of HEK293T CLPP^−/− cells (dose–response, compared with HEK293T WT): maintained
